The results in this text go back to ChEMBL document CHEMBL1157448, “Antimycotic activity of 4-thioisosteres of flavonoids towards yeast and yeast-like microorganisms” (2008).

The structures appear in SMILES notation.

Common to all, as to type: functional
Assay [1] has as its system Papiliotrema laurentii. The assay is described as follows: Antimycotic activity against Cryptococcus laurentii DBVPG 6265 by agar diffusion disk bioassay.
The test system of assay [2] is Candida albicans. The assay is described as follows: Antimycotic activity against Candida albicans DBVPG 6133 by agar diffusion disk bioassay.
Assay [3] deals with Papiliotrema laurentii. Kind of assay: Antimycotic activity against Cryptococcus laurentii DBVPG 4272 by agar diffusion disk bioassay.
For assay [4], the system named is Saccharomyces cerevisiae. Kind of assay: Antimycotic activity against Saccharomyces cerevisiae DBVPG 6173 by agar diffusion disk bioassay.
Assay [5] has as its system Saccharomyces cerevisiae. Kind of assay: Antimycotic activity against Saccharomyces cerevisiae DBVPG 6500 by agar diffusion disk bioassay.
Assay [6] deals with Prototheca wickerhamii. Kind of assay: Antimycotic activity against Prototheca wickerhamii DBVPG 8879 by agar diffusion disk bioassay.
Assay [7] relates to Candida albicans. The assay is described as follows: Antimycotic activity against Candida albicans DBVPG 6157 by agar diffusion disk bioassay.
The test system of assay [8] is Kluyveromyces marxianus. The assay is described as follows: Antimycotic activity against Kluyveromyces marxianus DBVPG 6141 by agar diffusion disk bioassay.
Assay [9] relates to Clavispora lusitaniae. Kind of assay: Antimycotic activity against Clavispora lusitaniae DBVPG 6142 by agar diffusion disk bioassay.
Assay [10] has as its system Papiliotrema laurentii. Kind of assay: Antimycotic activity against Cryptococcus laurentii DBVPG 3883 by agar diffusion disk bioassay.
Assay [11] deals with Cryptococcus neoformans. Kind of assay: Antimycotic activity against Filobasidiella neoformans DBVPG 3428 by agar diffusion disk bioassay.
In assay [12] the test system is Cryptococcus neoformans. Kind of assay: Antimycotic activity against Filobasidiella neoformans DBVPG 6225 by agar diffusion disk bioassay.
Assay [13] relates to Cryptococcus neoformans. Kind of assay: Antimycotic activity against Filobasidiella neoformans DBVPG 6010 by agar diffusion disk bioassay.
Assay [14] relates to Yarrowia lipolytica. Kind of assay: Antimycotic activity against Yarrowia lipolytica DBVPG 6053 by agar diffusion disk bioassay.
Assay [15] relates to Cryptococcus neoformans. Kind of assay: Antimycotic activity against Filobasidiella neoformans DBVPG 6982 by agar diffusion disk bioassay.
The subject of assay [16] is Cryptococcus neoformans. The assay is described as follows: Antimycotic activity against Filobasidiella neoformans DBVPG 6981 by agar diffusion disk bioassay.
Assay [17] has as its system Candida tropicalis. Kind of assay: Antimycotic activity against Candida tropicalis DBVPG 3982 by agar diffusion disk bioassay.
Assay [18] deals with [Candida] zeylanoides. The assay is described as follows: Antimycotic activity against Candida zeylanoides DBVPG 6163 by agar diffusion disk bioassay.
Assay [19] concerns Pichia kudriavzevii. Kind of assay: Antimycotic activity against Issatchenkia orientalis DBVPG 6782 by agar diffusion disk bioassay.
Assay [20] concerns Nakaseomyces glabratus. The assay is described as follows: Antimycotic activity against Candida glabrata DBVPG 7212 by agar diffusion disk bioassay.
Assay [21] concerns Meyerozyma guilliermondii. The assay is described as follows: Antimycotic activity against Pichia guilliermondii DBVPG 6140 by agar diffusion disk bioassay.

With `COc1ccc(C2CSc3c(O)cc(O)cc3O2)cc1` (stereo not given), the inhibition zone (IZ) came to 13.3 mm in assay [1]; 12.4 mm in assay [2]; 17.5 mm in [3]; 15.1 mm in assay [4]; 14.7 mm in [5].

Turning to `COc1cc(OC)c2c(c1)OC(c1ccc(O)c(O)c1)CS2` (stereo not given), the inhibition zone (IZ) in assay [1] amounted to 2.6 mm; in assay [3] it was 19.3 mm; in assay [4], 14.6 mm; in [6], 14.5 mm; in assay [5], 14.9 mm; in assay [7] it was 12.1 mm. Besides, the inhibition zone (IZ) in [8] amounted to 14.9 mm; in assay [9], 13.9 mm; in assay [10], 13.1 mm.

For `COc1ccc(C2CSc3ccc(O)cc3O2)cc1` (stereo not given), the inhibition zone (IZ) in [1] was determined as 16.8 mm; in assay [11], 14.6 mm; in [12], 14.9 mm; in assay [3], 26.4 mm; in assay [13], 18.1 mm; in [5] it was 20.6 mm. Moreover, the inhibition zone (IZ) worked out at 15.6 mm in [14], 14.1 mm in [7], 12.9 mm in assay [15] and 14.2 mm in assay [16].

`COc1ccc(C2CSc3cc(O)ccc3O2)cc1` (stereo not given): the inhibition zone (IZ) in [3] came to 22 mm; in assay [13] it was 13.6 mm.

For `Oc1ccc(C2CSc3ccc(O)cc3O2)cc1` (stereo not given), the inhibition zone (IZ) in assay [17] is 15.5 mm; in assay [1], 17.8 mm; in assay [11], 17.4 mm; in assay [18], 16.4 mm; in [12], 17 mm; in assay [19], 14 mm. Also, the inhibition zone (IZ) in assay [20] amounted to 13.1 mm; in assay [2], 16.2 mm; in assay [3], 28.5 mm; in assay [4] it was 15.6 mm; in assay [6], 17.8 mm; in [13], 15.5 mm. The inhibition zone (IZ) in assay [5] came out at 19.2 mm; in [14], 16.5 mm; in [7] it was 18.3 mm; in [21] it was 17.2 mm; in assay [9], 12.4 mm; in assay [16], 15.6 mm. The compound also returned an inhibition zone (IZ) in assay [10] of 22.6 mm.

In the case of `Oc1ccc(C2CSc3cc(O)ccc3O2)cc1` (stereo not given), the inhibition zone (IZ) was 16.9 mm in assay [1]; 11.2 mm in assay [12]; 16.4 mm in assay [3]; 15.2 mm in assay [4]; 15.5 mm in assay [13]; 14.3 mm in assay [14]. In addition, the inhibition zone (IZ) in assay [9] amounted to 12.9 mm; in assay [10] it was 13.8 mm.

Consider `COc1ccc2c(c1)OC(c1ccc(O)cc1)CS2` (stereo not given), for which the inhibition zone (IZ) in [17] amounted to 20.2 mm; in assay [1], 20.6 mm; in assay [11], 20 mm; in assay [18] it was 19.4 mm; in [12] it was 18.4 mm; in [19], 17.6 mm. In addition, the inhibition zone (IZ) was 17.5 mm in [2]; 30.2 mm in assay [3]; 24.1 mm in assay [4]; 20.7 mm in assay [6]; 35.1 mm in [13]; 18.3 mm in assay [5]. For the same compound, the inhibition zone (IZ) in assay [14] turned out to be 15.8 mm; in assay [7] it was 16.5 mm; in assay [9], 15.3 mm; in assay [16] it was 25.1 mm; in assay [10], 18.2 mm.
